From paper PMC3324464, “The GPI Anchor Signal Sequence Dictates the Folding and Functionality of the Als5 Adhesin from Candida albicans” (PLoS ONE, 2012)
Where two headings read alike, the source gives them in different places. Ends that are not written are not given here.

Legend:
GST-Als5 [1] = target: T1, GST-Als5 (Candida albicans, UniProt Q5A8T7); assay: biochemical; assay type: binding; conditions: for Kd: 0.02 mg/ml protein, excitation 295 nm, one-site saturation model
T1 construct: made in house; host or cells: E. coli BL21(DE3)
T1 sequence (Q5A8T7 1-1327): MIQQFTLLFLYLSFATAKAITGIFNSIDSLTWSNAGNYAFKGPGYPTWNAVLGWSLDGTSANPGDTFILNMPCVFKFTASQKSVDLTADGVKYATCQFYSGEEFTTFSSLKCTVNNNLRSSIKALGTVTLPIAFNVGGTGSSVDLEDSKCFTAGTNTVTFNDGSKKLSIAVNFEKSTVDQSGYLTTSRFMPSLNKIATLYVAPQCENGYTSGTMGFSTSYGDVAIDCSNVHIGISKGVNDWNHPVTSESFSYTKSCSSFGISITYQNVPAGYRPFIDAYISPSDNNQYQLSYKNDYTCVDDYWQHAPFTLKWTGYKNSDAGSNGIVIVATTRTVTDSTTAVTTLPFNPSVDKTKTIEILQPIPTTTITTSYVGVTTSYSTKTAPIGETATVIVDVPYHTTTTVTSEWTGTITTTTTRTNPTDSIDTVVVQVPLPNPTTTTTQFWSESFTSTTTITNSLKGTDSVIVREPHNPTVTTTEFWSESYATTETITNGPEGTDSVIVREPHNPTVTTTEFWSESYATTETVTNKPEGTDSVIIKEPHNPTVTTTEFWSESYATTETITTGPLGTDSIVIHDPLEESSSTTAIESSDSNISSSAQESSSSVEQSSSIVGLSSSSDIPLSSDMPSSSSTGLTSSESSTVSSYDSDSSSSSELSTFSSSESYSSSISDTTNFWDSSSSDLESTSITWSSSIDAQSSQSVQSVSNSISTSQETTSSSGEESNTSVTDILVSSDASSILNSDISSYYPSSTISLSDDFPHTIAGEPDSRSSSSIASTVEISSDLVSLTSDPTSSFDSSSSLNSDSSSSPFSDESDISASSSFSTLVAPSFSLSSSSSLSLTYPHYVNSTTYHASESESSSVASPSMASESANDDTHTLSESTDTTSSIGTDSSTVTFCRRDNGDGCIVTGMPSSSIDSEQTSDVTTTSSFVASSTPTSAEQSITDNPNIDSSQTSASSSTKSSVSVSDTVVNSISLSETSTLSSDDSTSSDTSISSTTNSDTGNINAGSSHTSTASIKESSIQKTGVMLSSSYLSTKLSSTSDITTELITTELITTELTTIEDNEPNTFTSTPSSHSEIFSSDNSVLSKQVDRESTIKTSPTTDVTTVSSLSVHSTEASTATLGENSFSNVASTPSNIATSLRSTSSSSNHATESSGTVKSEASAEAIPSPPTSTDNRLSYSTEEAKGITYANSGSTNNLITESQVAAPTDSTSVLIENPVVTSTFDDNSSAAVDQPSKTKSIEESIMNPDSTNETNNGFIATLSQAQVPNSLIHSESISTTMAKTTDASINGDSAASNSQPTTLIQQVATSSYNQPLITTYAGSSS
Method: (§1) Binding of GST-Als5 and GST-Als5-SS proteins to different peptides was monitored by fluorescence emission spectroscopy. Freshly purified samples of protein were used each time. 0.02 mg/ml of the proteins were taken and the tryptophan-specific emission spectra were monitored between 310 nm to 400 nm by excitation at 295 nm. The peptides were titrated into the protein solutions, incubated for 5 minutes after each addition, and emission spectra recorded. Both excitation and emission bandwidths were fixed at 5 nm and all spectra were averages of 5 scans. All spectra were corrected for buffer and peptide backgrounds.
(§2) All binding data were analyzed using a one-site saturation model. Binding studies were done at different temperatures, and ΔG^o for the protein-peptide interactions calculated using the equation: ΔG^o = –RTlnKa. ΔH^o and ΔS^o were obtained from the slope and intercept of the van’t Hoff plots according to the equation: [drawing 1]
(§3) The change in fluorescence emission intensity upon titration with the peptide ligands was monitored (see Figures S8A, S8C, S8E, S8G and Figures S9A, S9C, S9E, S9G, respectively) and the binding plots obtained (Figures S8B, S8D, S8F, S8H and Figures S9B, S9D, S9F, S9H, respectively) were used to calculate dissociation constants (Kd) for the interaction (Table 1).
Supplementary file pone.0035305.s008.tif: Figure S8 Binding of GST-Als5 with different peptides. A, C, E and G show representative fluorescence spectra obtained upon binding of GST-Als5 with the peptide EHAHTPR at 15 °C, 27 °C, 37 °C and 47 °C, respectively. B, D, F and H represent the binding plots of GST-Als5 with different peptides at 15 °C, 27 °C, 37 °C and 47 °C, respectively. Each data point gives the average of three independent measurements done in duplicates and the error bars denote standard deviations. Spectra 1–7 represent binding of peptides with GST-Als5 in the following order of increasing concentrations of the peptides: 1: no peptide; 2: 0.037 µM; 3: 0.074 µM; 4: 0.443 µM; 5: 0.804 µM; 6: 1.154 µM; 7: 1.5 µM. (TIF) Click here for additional data file.

GST-Als5-SS [2] = target: T2, GST-Als5-SS (Candida albicans, UniProt Q5A8T7); assay: biochemical; assay type: binding
T2 construct: made in house; host or cells: E. coli BL21(DE3)
T2 sequence (Q5A8T7 whole entry): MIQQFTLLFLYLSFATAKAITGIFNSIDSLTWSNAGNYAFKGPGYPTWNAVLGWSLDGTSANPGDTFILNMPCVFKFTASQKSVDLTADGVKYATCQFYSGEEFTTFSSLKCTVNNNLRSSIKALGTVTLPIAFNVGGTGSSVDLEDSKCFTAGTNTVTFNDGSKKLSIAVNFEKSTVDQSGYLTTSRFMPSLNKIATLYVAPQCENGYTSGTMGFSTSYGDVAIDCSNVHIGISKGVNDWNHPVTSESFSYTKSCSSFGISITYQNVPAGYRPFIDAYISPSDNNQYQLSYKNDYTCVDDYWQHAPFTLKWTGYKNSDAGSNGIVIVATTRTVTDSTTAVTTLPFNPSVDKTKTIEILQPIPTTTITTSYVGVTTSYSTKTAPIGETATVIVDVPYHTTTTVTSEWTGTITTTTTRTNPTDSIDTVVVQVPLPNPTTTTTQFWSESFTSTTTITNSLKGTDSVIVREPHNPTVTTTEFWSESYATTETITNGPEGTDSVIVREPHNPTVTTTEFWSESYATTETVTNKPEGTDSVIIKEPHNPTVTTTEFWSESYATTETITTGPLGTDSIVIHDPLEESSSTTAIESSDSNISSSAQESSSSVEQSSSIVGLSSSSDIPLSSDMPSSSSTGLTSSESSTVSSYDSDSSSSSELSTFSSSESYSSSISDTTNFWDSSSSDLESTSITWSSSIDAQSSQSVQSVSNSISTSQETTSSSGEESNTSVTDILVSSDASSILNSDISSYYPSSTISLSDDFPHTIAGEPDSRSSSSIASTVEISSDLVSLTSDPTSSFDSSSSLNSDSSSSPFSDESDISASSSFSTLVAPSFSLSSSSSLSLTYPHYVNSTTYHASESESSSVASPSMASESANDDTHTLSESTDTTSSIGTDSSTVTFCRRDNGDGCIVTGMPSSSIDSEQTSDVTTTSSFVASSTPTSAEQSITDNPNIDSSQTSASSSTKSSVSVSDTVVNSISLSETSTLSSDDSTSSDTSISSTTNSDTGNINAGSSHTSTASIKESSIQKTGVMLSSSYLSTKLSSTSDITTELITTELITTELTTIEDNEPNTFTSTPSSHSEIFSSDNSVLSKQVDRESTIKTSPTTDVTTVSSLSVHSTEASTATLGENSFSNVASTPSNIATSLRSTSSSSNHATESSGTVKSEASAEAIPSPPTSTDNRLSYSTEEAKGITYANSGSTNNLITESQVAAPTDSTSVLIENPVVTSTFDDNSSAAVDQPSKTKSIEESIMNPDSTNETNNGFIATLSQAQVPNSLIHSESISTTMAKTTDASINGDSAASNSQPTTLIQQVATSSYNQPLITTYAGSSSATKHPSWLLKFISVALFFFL
Method: as §1, §2
as §3, with “1). […]” for “1).”

GST-Als5 [3] = target: T3, GST-Als5 (Candida albicans, UniProt Q5A8T7 20-1327); assay: other fluorescence titration; tryptophan fluorescence of 0.02 mg/ml protein, peptide titrated in; one-site saturation model; 42 °C; conditions: both partners purified
T3 construct: source: E. coli BL21, purified (glutathione-agarose); not shown: GST, N-terminal, kept
T3 sequence: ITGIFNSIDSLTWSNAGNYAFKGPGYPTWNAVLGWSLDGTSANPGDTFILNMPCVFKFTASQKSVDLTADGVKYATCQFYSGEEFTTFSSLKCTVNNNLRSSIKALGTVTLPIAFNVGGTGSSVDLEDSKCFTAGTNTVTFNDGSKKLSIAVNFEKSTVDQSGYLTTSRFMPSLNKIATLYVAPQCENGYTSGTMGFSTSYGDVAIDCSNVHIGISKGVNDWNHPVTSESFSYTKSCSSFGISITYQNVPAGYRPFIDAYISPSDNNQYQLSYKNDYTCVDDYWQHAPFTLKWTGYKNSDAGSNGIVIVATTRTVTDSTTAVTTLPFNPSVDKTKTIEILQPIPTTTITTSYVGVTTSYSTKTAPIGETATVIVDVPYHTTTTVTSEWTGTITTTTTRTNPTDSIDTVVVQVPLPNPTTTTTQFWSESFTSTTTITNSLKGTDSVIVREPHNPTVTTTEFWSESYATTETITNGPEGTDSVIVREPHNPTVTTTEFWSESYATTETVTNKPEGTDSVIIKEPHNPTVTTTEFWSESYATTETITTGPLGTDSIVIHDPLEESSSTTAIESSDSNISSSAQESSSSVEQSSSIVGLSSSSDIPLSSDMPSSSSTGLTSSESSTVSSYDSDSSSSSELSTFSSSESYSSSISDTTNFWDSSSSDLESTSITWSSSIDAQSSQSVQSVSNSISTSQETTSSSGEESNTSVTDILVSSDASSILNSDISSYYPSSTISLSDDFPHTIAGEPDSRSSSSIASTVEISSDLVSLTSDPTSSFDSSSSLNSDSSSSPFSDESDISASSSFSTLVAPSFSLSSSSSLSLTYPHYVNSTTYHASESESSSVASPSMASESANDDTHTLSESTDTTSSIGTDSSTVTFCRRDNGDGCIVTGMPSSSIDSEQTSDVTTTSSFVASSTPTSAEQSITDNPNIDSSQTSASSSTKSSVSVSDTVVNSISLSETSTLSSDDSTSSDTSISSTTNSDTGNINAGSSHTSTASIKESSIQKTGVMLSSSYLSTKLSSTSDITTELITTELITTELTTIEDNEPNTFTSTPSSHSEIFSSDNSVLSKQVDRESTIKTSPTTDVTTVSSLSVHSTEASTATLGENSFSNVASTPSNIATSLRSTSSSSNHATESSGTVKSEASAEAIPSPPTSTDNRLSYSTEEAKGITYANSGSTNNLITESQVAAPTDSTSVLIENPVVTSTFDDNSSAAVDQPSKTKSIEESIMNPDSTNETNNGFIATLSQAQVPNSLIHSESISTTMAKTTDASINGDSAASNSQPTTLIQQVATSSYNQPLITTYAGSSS

GST-Als5-SS [4] = target: T4, GST-Als5-SS (Candida albicans, UniProt Q5A8T7 20-1326, N-terminal GST tag (pGEX-6P-2) not cleaved, omitted here; expressed in E. coli, unglycosylated. The 4044 bp insert implies the full ORF, including the N-terminal secretion signal, although the figure); assay: other fluorescence titration; van't Hoff plots of the association constants from the fluorescence titrations at different temperatures; ΔH° from the slope; conditions: both partners purified
GST-Als5 [5] = target: T3, GST-Als5; assay: as above; conditions: both partners purified
GST-Als5-SS [6] = target: T4, GST-Als5-SS; assay: other fluorescence titration; tryptophan fluorescence of 0.02 mg/ml protein, peptide titrated in; one-site saturation model; 52 °C (secondary structure of both proteins mildly perturbed at this temperature); conditions: both partners purified
GST-Als5 [7] = target: T3, GST-Als5; assay: as above; conditions: both partners purified
[8] = 15 °C, N.B. = no binding observed, emission 310-400 nm, average of three independent measurements in duplicates
[9] = 27 °C, N.B. = no binding observed, average of three independent measurements in duplicates
[10] = Kd, 37 °C, average of three independent measurements in duplicates
[11] = Kd, 47 °C, N.B. = no binding observed, average of three independent measurements in duplicates
[12] = 15 °C, N.B. = no binding observed, 0.02 mg/ml protein, excitation 295 nm, emission 310-400 nm, one-site saturation model, average of three independent measurements in duplicates
[13] = Kd, 27 °C, N.B. = no binding observed, 0.02 mg/ml protein, excitation 295 nm, one-site saturation model, average of three independent measurements in duplicates
[14] = Kd, 37 °C, 0.02 mg/ml protein, excitation 295 nm, one-site saturation model, average of three independent measurements in duplicates
[15] = Kd, 47 °C, N.B. = no binding observed, 0.02 mg/ml protein, excitation 295 nm, one-site saturation model, average of three independent measurements in duplicates

| Molecule | Kd (GST-Als5 [1]; [8]) | Kd (GST-Als5 [1]; [9]) | Kd (GST-Als5 [1]; [10]) [nM] | Kd (GST-Als5 [1]; Kd, 42 °C) [nM] | Kd (GST-Als5 [1]; [11]) [nM] | Kd (GST-Als5-SS [2]; [12]) | Kd (GST-Als5-SS [2]; [13]) [nM] | Kd (GST-Als5-SS [2]; [14]) [nM] | Kd (GST-Als5-SS [2]; [15]) [nM] | Kd (GST-Als5 [3]) [nM] | dH (GST-Als5-SS [4]) [kcal/mol] | dH (GST-Als5 [5]) [kcal/mol] | Kd (GST-Als5-SS [6]) [nM] | Kd (GST-Als5 [7]) [nM] | also measured |
| --- | --- | --- | --- | --- | --- | --- | --- | --- | --- | --- | --- | --- | --- | --- | --- |
| AYKSLMT [AYKSLMT] | N.B. | N.B. | 13 ± 7 | 9 ± 4 | 13 ± 6 | N.B. | 77 ± 2 | 6 ± 0.2 | 9 ± 2 |  |  |  |  |  |  |
| EHAHTPR [EHAHTPR] | N.B. | N.B. | 160 ± 38 | 34 ± 8 | 34 ± 11 |  | 82 ± 16 | 44 ± 4 | 25 ± 9 |  |  |  |  |  | Kd (GST-Als5-SS [2]): 65 ± 13 nM |
| KLRIPSV [KLRIPSV] | N.B. | N.B. | 34 ± 12 |  | 7 ± 3 | N.B. | 53 ± 6 | 17 ± 5 | 14 ± 2 |  |  |  |  |  | Kd (GST-Als5 [1]; Kd, 52 °C (secondary structure of protein mildly perturbed)): 7 ± 2 nM |
| VSPIRLK [scrambled peptide] |  | N.B. |  |  |  |  |  |  |  |  |  |  |  |  | binding (in words) (GST-Als5 [1]; 27 °C and 47 °C): showed no affinity for either of the protein variants; Kd (GST-Als5 [1]; 47 °C, N.B. = no binding observed, average of three independent measurements in duplicates): N.B.; binding (in words) (GST-Als5-SS [2]; 27 °C and 47 °C): showed no affinity for either of the protein variants; Kd (GST-Als5-SS [2]; 27 °C, N.B. = no binding observed, 0.02 mg/ml protein, excitation 295 nm, one-site saturation model, average of three independent measurements in duplicates): N.B.; Kd (GST-Als5-SS [2]; 47 °C, N.B. = no binding observed, 0.02 mg/ml protein, excitation 295 nm, one-site saturation model, average of three independent measurements in duplicates): N.B. |
| KLRIPSV (source: synthetic peptide (USV Ltd.)) |  |  |  |  |  |  |  |  |  | 4 | 15.3 | 22.5 | 5 | 7 |  |
| EHAHTPR (source: synthetic peptide (USV Ltd.)) |  |  |  |  |  |  |  |  |  | 34 | 8.15 | 33.4 | 8 | 11 |  |
